Results from patent US8609643B2, “2-methylene-(20S,25R)-19,26-dinor-vitamin D analogs” (Wisconsin Alumni Research Foundation, priority 2007, dated 2013).

Legend:
[1] = Bone calcium mobilization (serum calcium) in vitamin D-deficient rats; assay type: in vivo, Sprague-Dawley rats; settings: ip
Procedure: (§1) Male, weanling Sprague-Dawley rats were placed on Diet 11 (0.47% Ca) diet+AEK oil for one week followed by Diet 11 (0.02% Ca)+AEK oil for 3 weeks. The rats were then switched to a diet containing 0.47% Ca for one week followed by two weeks on a diet containing 0.02% Ca. Dose administration began during the last week on 0.02% calcium diet. Four consecutive ip doses were given approximately 24 hours apart. Twenty-four hours after the last dose, blood was collected from the severed neck and the concentration of serum calcium determined as a measure of bone calcium mobilization. The first 10 cm of the intestine was also collected for intestinal calcium transport analysis using the everted gut sac method.

[2] = test system: 24-hydroxylase (24Ohase) gene promoter; test: In vitro transcription assay, luciferase reporter in ROS 17/2.8 (bone) cells; assay type: cell-based; settings: ROS 17/2.8 cells, 24Ohase promoter-luciferase; FIG. 3; read-out: EC50, transcriptional activity in bone cells (24-hydroxylase gene)
Procedure: Transcription activity was measured in ROS 17/2.8 (bone) cells that were stably transfected with a 24-hydroxylase (24Ohase) gene promoter upstream of a luciferase reporter gene (Arbour et al., 1998). Cells were given a range of doses. Sixteen hours after dosing the cells were harvested and luciferase activities were measured using a luminometer.
RLU=relative luciferase units.

[3] = Intestinal calcium transport, everted gut sac method, vitamin D-deficient rats; assay type: in vivo, Sprague-Dawley rats; settings: ip, FIGS. 5A and 5B
Procedure: as §1

HL-60 cells = test: HL-60 cell differentiation (nitro blue tetrazolium reduction); assay type: cell-based, Human; settings: for EC50: HL-60 differentiation into monocytes, FIG. 2
Procedure: The study drugs were dissolved in ethanol and the concentrations determined using UV spectrophotometry. Serial dilutions were prepared so that a range of drug concentrations could be tested without changing the final concentration of ethanol (≦0.2%) present in the cell cultures.
Human promyelocytic leukemia (HL60) cells were grown in RPMI-1640 medium containing 10% fetal bovine serum. The cells were incubated at 37° C. in the presence of 5% CO2.
HL60 cells were plated at 1.2×10^5 cells/ml. Eighteen hours after plating, cells in duplicate were treated with drug. Four days later, the cells were harvested and a nitro blue tetrazolium reduction assay was performed (Collins et al., 1979; J. Exp. Med. 149:969-974). The percentage of differentiated cells was determined by counting a total of 200 cells and recording the number that contained intracellular black-blue formazan deposits. Verification of differentiation to monocytic cells was determined by measuring phagocytic activity (data not shown).

SMILES | serum calcium levels (bone calcium mobilization) ([1]; all dosages, rats on 0.02% Ca diet, FIGS. 4A and 4B) | EC50 [2] [nM] | intestinal calcium transport ([3]; 260 pmol/day) | EC50 (HL-60 cells) [nM] | bone calcium mobilization (serum calcium) ([1]; 260 pmol/day for 4 consecutive days, rats on 0.02% Ca diet) | bone calcium mobilization (serum calcium) ([1]; 7020 pmol/day, rats on 0.02% Ca diet) | potency in mobilizing bone calcium relative to the native hormone (times less potent) ([1]; versus 1,25(OH)2D3, rats) | intestinal calcium transport ([3]; 7020 pmol/day) | EC50 (HL-60 cells; Homo sapiens) [nM] | potency on HL-60 cell differentiation relative to 1,25(OH)2D3 (times more potent) (HL-60 cells; versus 1,25(OH)2D3)
C=C1/C(=C\C=C2/CCC[C@]3(C)[C@@H]([C@H](C)CCCC(C)(C)O)CC[C@@H]23)C[C@@H](O)C[C@@H]1O [1,25(OH)2D3, 1α,25-dihydroxyvitamin D3, reference compound] | increased serum calcium levels at all dosages | 0.2 | promotes a significant increase | 2 | – | – | – | – | – | –
C=C1[C@H](O)CC(=C/C=C2\CCC[C@@]3(C)C2CC[C@@H]3[C@@H](C)CCC[C@@H](C)O)C[C@H]1O (stereo partly drawn) [SR1, 2-methylene-(20S,25R)-19,26-dinor-1α,25-dihydroxyvitamin D3] | – | 0.01 | promotes intestinal calcium transport only slightly | – | did not result in mobilization of bone calcium | without any substantial effect | approximately 30 times | significant intestinal calcium transport activity was recorded | 0.1 | about 10 times
